Columns and labels:
[1] = system: EGFR and erbB2 kinases; settings: Rusnak et al., 2001b, Xia et al., 2002; cited from earlier work
[2] = system: HN5C2 head and neck tumor cell line; assay: CellTiter-Glo cell growth inhibition assay, HN5C2; type: cell-based
[3] = system: SK-BR-3 breast tumor cell line; assay: CellTiter-Glo cell growth inhibition assay, SK-BR-3; type: cell-based; settings: Homo sapiens, 72 h, luminal, HER2+, 3 days
Protocol: (§1) Breast tumor cell lines, BT-474, SK-Br-3, MDA-MB-453, MDA-MB-231 and T47D and head and neck squamous cell carcinoma line, SCC15 were purchased from the American Type Culture Collection.
(§2) BT-474, SK-Br-3, JimT-1, MDA-MB-453, MDA-MB-231 and T47D and SCC15 were cultured in a humidified incubator at 37° C. in 95% air, 5% CO2 in the RPMI 1640 containing 10% fetal bovine serum (FBS) media.
(§3) Cell growth inhibition was determined via CellTiter-Glo cell viability assays. Cells were seeded in a 96-well tissue culture plate (NUNC 136102) with the following plating densities in their respective media at 1000 or 2000 cells/well dependent on cell growth rate. […] The cells were incubated in the presence of the compounds for 3 days. ATP levels were determined by adding Cell Titer Glo® (Promega), incubating for 20 minutes then a luminescent signal was read on the SpectraMax M5 plate with a 0.5 sec integration time. Cell growth was calculated relative to vehicle (DMSO) treated control wells. […] When the CI value was between 0.9 and 1.10, the combination of the two agents was deemed additive. Combination Index values less than 0.9 were considered indicative of synergy. Combination Index values>1.10 indicated antagonism.

[4] = system: T47D breast tumor cell line; assay: CellTiter-Glo cell growth inhibition assay, T47D; type: cell-based; settings: Homo sapiens, 72 h, luminal, HER normal, 3 days
Protocol: as §1, §2, §3

[5] = system: LL1-BT-474-J4 (J4) breast cell clone; assay: CellTiter-Glo cell growth inhibition assay, LL1-BT-474-J4; type: cell-based; settings: for IC50: 72 h; for sensitivity of the cell line to the agent (in words): LL1-BT-474-J4
[6] = system: JIMT-1 breast tumor cell line; assay: CellTiter-Glo cell growth inhibition assay, JIMT-1; type: cell-based; settings: for IC50: Homo sapiens, JIMT-1, 72 h, JIMT1, breast, basal, HER2+, 3 days
Protocol: as §1, §2, §3

[7] = system: MDA-MB-453 breast tumor cell line; assay: CellTiter-Glo cell growth inhibition assay, MDA-MB-453; type: cell-based; settings: Homo sapiens, 72 h, luminal, HER2+, 3 days
Protocol: as §1, §2, §3

[8] = system: MDA-MB-231 breast tumor cell line; assay: CellTiter-Glo cell growth inhibition assay, MDA-MB-231; type: cell-based; settings: Homo sapiens, 72 h, post EMT, HER normal, 3 days
Protocol: as §1, §2, §3

[9] = system: BT-474 breast tumor cell line; assay: CellTiter-Glo cell growth inhibition assay, BT-474; type: cell-based; settings: for IC50: Homo sapiens, BT-474, 72 h, BT474, breast, luminal, HER2+, 3 days
Protocol: as §1, §2, §3

[10] = system: SCC15 head and neck squamous cell carcinoma line; assay: cells; settings: Homo sapiens, SCC-15, 72 h, read-out: IC50 (cell growth inhibition)
Protocol: as §1, §2, §3

IC50 ([2]; 72 h) [µM] | IC50 [3] [µM] | IC50 [5] [µM] | IC50 [6] [µM] | IC50 [7] [µM] | IC50 [9] [µM] | IC50 [10] [µM] | Structure (SMILES) | kinase inhibition in human xenograft studies [1] | sensitivity of the cell line to the agent (in words) ([2]; HN5C2) | IC50 [4] [µM] | sensitivity of the cell line to the agent (in words) [5] | sensitivity of the cell line to the agent (in words) ([6]; JIMT-1) | IC50 [8] [µM] | sensitivity of the cell line to the agent (in words) ([9]; BT-474)
9.78 | 0.22 | 10.9 | 14.7 | 4.79 | 0.09 | – | CS(=O)(=O)CCNCc1ccc(-c2ccc3ncnc(Nc4ccc(OCc5cccc(F)c5)c(Cl)c4)c3c2)o1 [Lapatinib, N-{3-chloro-4-[(3-fluorobenzyl)oxy]phenyl}-6-[5-({[2-(methanesulphonyl)ethyl]amino}methyl)-2-furyl]-4-quinazolinamine] | dose-dependent kinase inhibition | resistant | > 10 | resistant | resistant | > 10 | highly sensitive
– | – | – | – | – | – | – | COc1cc2ncnc(Nc3ccc(F)c(Cl)c3)c2cc1OCCCN1CCOCC1 [gefitinb] | – | – | – | resistant | – | – | –
– | – | – | – | – | – | – | CC(=O)O[C@H]1C(=O)[C@@]2(C)[C@H]([C@H](OC(=O)c3ccccc3)[C@]3(O)C[C@H](OC(=O)[C@H](O)[C@@H](NC(=O)c4ccccc4)c4ccccc4)C(C)=C1C3(C)C)[C@]1(OC(C)=O)CO[C@@H]1C[C@@H]2O [taxol] | – | – | – | retains sensitivity | – | – | –
– | 6.64 | > 10 | 0.4 | > 10 | 10.1 | 0.06 | Cc1nc(Nc2ncc(C(=O)Nc3c(C)cccc3Cl)s2)cc(N2CCN(CCO)CC2)n1 [Dasatinib, N-(2-chloro-6-methylphenyl)-2-[[6-[4-(2-hydroxyethyl)-1-piperazinyl]-2-methyl-4-pyrimidinyl]amino]-5-thiazolecarboxamide,monohydrate] | – | – | 8.96 | – | – | 0.23 | –
